Experimental data as given in patent US20250144067A1, “PERSONALIZED STARVATION THERAPY FOR CANCER” (Faeth Therapeutics, Inc., priority 2021, published 2025).
Counter-ions that a name gives are not always drawn.

Columns and labels:
[1] = test system: NCI-H292 lung cancer cells; test: FDA drug screening, complete media vs cholesterol-free media without statin (TABLE 1); assay type: cell-based, human
[2] = test system: NCI-H292 lung cancer cells; test: FDA drug screening, complete media vs cholesterol-free media with simvastatin (TABLE 2); assay type: cell-based, human; settings: for Cholesterol-free media + simvastatin (0.04 μM) / Complete Media: NCI-H292 cells
[3] = Complete minus Cholesterol-free, >0 enhanced anti-cancer activity, about 0 neutral, <0 antagonist
[4] = NCI-H292 cells, cholesterol-free media without statin
[5] = FDA drug library screen, cholesterol-free media with simvastatin 0.04 μM
[6] = FDA drug library screen, complete media
[7] = complete media minus cholesterol-free media + simvastatin, >0 enhanced anti-cancer activity, about 0 neutral, <0 antagonist
[8] = Complete minus Cholesterol-free, greater than 0 enhanced anti-cancer activity, about 0 neutral, below 0 antagonists
[9] = NCI-H292 cells in cholesterol-free media without statin
[10] = NCI-H292 cells in complete media
[11] = cholesterol-free media with simvastatin 0.04 μM, cell growth value in FDA drug screen
[12] = complete media, cell growth value in FDA drug screen
[13] = drug in cholesterol-free media with simvastatin 0.04 μM
[14] = complete media vs cholesterol-free media + simvastatin (0.04 μM), >0 enhanced anti-cancer activity, about 0 neutral, <0 antagonist
[15] = NCI-H292 cells, cholesterol-free media without statin, FDA drug library screen
[16] = FDA library drug in cholesterol-free media with simvastatin 0.04 μM
[17] = FDA library drug in complete media

SMILES: CC(C(=O)O)c1ccc(CC2CCCC2=O)cc1 (centres unmarked) [Loxoprofen (sodium)]
- Difference [1, 3]: −0.22
- Cholesterol-free [1, 4]: 0.9775
- Complete ([1]; NCI-H292 cells, complete media): 0.7554
- Cholesterol-free media + simvastatin (0.04 μM) [2, 5]: 1.087
- Complete Media [2, 6]: 1.62
- Difference [2, 7]: 0.53

SMILES: CC(C(=O)O)c1ccc(CC2CCCC2=O)cc1 (centres unmarked) [Loxoprofen]
- Difference [1, 8]: −0.88
- Cholesterol-free [1, 9]: 1.914
- Complete [1, 10]: 1.039
- Cholesterol-free media + simvastatin (0.04 μM) [2, 11]: 0.9936
- Complete Media [2, 12]: 1.115
- Difference [2, 7]: 0.12

SMILES: CCCCC(F)(F)[C@@]1(O)CC[C@H]2[C@@H](CC(=O)[C@@H]2CCCCCCC(=O)O)O1 [Lubiprostone]
- Difference [1, 3]: −0.28
- Cholesterol-free [1, 4]: 1.064
- Complete ([1]; NCI-H292 cells, complete media): 0.7833
- Cholesterol-free media + simvastatin (0.04 μM) [2, 5]: 1.061
- Complete Media [2, 6]: 1.267
- Difference [2, 7]: 0.21

SMILES: N#C/C(=C1/SC[C@@H](c2ccc(Cl)cc2Cl)S1)n1ccnc1 [Luliconazole]
- Difference [1, 8]: −0.58
- Cholesterol-free [1, 9]: 1.532
- Complete [1, 10]: 0.9562
- Cholesterol-free media + simvastatin (0.04 μM) [2, 5]: 0.3531
- Complete Media [2, 6]: 0.8464
- Difference [2, 7]: 0.49

SMILES: Cc1ccc(NC(=O)C2(c3ccc4c(c3)OC(F)(F)O4)CC2)nc1-c1cccc(C(=O)O)c1 [Lumacaftor]
- Difference [1, 3]: −0.19
- Cholesterol-free [1, 4]: 1.044
- Complete ([1]; NCI-H292 cells, complete media): 0.854
- Cholesterol-free media + simvastatin (0.04 μM) [2, 13]: 1.744
- Complete Media ([2]; drug in complete media): 1.539
- Difference [2, 14]: −0.20

SMILES: CCCCN(CCCC)CC(O)c1cc(Cl)cc2c1-c1ccc(Cl)cc1/C2=C/c1ccc(Cl)cc1 (centres unmarked) [Lumefantrine]
- Cholesterol-free [1, 15]: 0.9552
- Difference ([1]; complete vs cholesterol-free media, >0 enhanced anti-cancer activity, about 0 neutral, <0 antagonist): 0.22
- Cholesterol-free media + simvastatin (0.04 μM) [2, 11]: 0.8537
- Complete Media [2, 12]: 0.9184
- Difference [2, 7]: 0.06

SMILES: O=C1[C@@H]2[C@H]3CC[C@H](C3)[C@@H]2C(=O)N1C[C@@H]1CCCC[C@H]1CN1CCN(c2nsc3ccccc23)CC1 [Lurasidone (Hydrochloride)]
- Difference [1, 3]: −0.27
- Cholesterol-free [1, 4]: 1.115
- Complete ([1]; NCI-H292 cells, complete media): 0.8426
- Cholesterol-free media + simvastatin (0.04 μM) ([2]; cholesterol-free media with simvastatin 0.04 μM, FDA drug library screen (TABLE 2)): 0.8431
- Complete Media ([2]; complete media, FDA drug library screen (TABLE 2)): 0.8046
- Difference ([2]; complete media minus cholesterol-free media + simvastatin (0.04 μM), >0 enhanced anti-cancer activity, about 0 neutral, <0 antagonist): −0.04

SMILES: CCCCCCO[C@@H](C)c1cccc(-c2csc(NC(=O)c3cc(Cl)c(/C=C(\C)C(=O)O)c(Cl)c3)n2)c1OC [Lusutrombopag]
- Difference [1, 3]: −0.26
- Cholesterol-free [1, 4]: 1.148
- Complete ([1]; NCI-H292 cells, complete media): 0.8829
- Cholesterol-free media + simvastatin (0.04 μM) [2, 13]: 0.9436
- Complete Media ([2]; drug in complete media): 0.7827
- Difference [2, 14]: −0.16

SMILES: CCCNS(=O)(=O)Nc1ncnc(OCCOc2ncc(Br)cn2)c1-c1ccc(Br)cc1 [Macitentan]
- Difference [1, 8]: −0.48
- Cholesterol-free [1, 9]: 1.592
- Complete [1, 10]: 1.113
- Cholesterol-free media + simvastatin (0.04 μM) [2, 5]: 1.697
- Complete Media [2, 6]: 1.56
- Difference [2, 14]: −0.14

SMILES: C=CCc1ccc(O)c(-c2cc(CC=C)ccc2O)c1 [Magnolol]
- Cholesterol-free [1, 15]: 0.6495
- Complete ([1]; NCI-H292 cells, complete media, FDA drug library screen): 1.053
- Difference ([1]; complete vs cholesterol-free media, […]): 0.40
- Cholesterol-free media + simvastatin (0.04 μM) [2, 13]: 1.293
- Complete Media ([2]; drug in complete media): 1.087
- Difference ([2]; complete media vs cholesterol-free media + simvastatin (0.04 μM), […]): −0.21

SMILES: CC(C)OC(=O)C(C(=O)OC(C)C)=C1SC=CS1 [Malotilate]
- Difference [1, 3]: −0.31
- Cholesterol-free [1, 4]: 1.163
- Complete ([1]; NCI-H292 cells, complete media): 0.8568
- Cholesterol-free media + simvastatin (0.04 μM) [2, 16]: 1.172
- Complete Media [2, 17]: 0.8557
- Difference [2, 14]: −0.32

SMILES: OC[C@@H](O)[C@@H](O[C@H]1O[C@H](CO)[C@@H](O)[C@H](O)[C@H]1O)[C@H](O)[C@@H](O)CO [Maltitol]
- Cholesterol-free [1, 4]: 1.093
- Complete ([1]; NCI-H292 cells, complete media): 0.7088
- Difference ([1]; complete vs cholesterol-free media, greater than 0 enhanced anti-cancer activity, about 0 neutral, below 0 antagonists): −0.38
- Cholesterol-free media + simvastatin (0.04 μM) [2, 16]: 1.264
- Complete Media [2, 17]: 0.9377
- Difference [2, 14]: −0.33
